SMILES strings stand for the structures.

These results are taken from USRE38921E1, “Phenoxyalkylcarboxylic acid derivatives and process for their preparations” (Kyorin Pharmaceutical Co., Ltd., priority 1988, dated 2005).

Data set [1] deals with bronchoconstrictor response induced by leukotriene D4. Briefly: Inhibition test of bronchoconstriction in guinea pig. The data set is classed as in vivo. More on the design: unit not given here. As to conditions: 2 hours before i.v. leukotriene D4 (3 μg/kg), anesthetized male Hartley guinea pig. The method, then: Male Hartley guinea pig weighing about 450 g was anesthetized with sodium pentobarbital (30 mg/kg,i.p.), and the changes in transpulmonary pressure was measured according to the modified method of Konzett-Rössler (J. Harvey et al., J. Pharmacol. Method. 9, 147-155, 1983). Bronchoconstrictor response was induced by injection of leukotriene D4 (3 μg/kg) into left jugular vein. Further, indomethacin and propranolol were injected into vein of the animal, prior to the injection of leukotriene D4. Test compounds suspended in 5% solution of Gum Arabic were administered orally 2 hours before the injection of leukotriene D4.

Broadly, the melting point is the temperature of the solid-liquid transition. The compound `CCCc1c(SCCCOc2ccc(C(C)=O)c(OCCCC(=O)OCC)c2CCC)ccc(C(C)=O)c1O` [Example 1, Ethyl 4-[6-acetyl-3-[3-(4-acetyl-3-hydroxy-2-propylphenylthio)propoxy]-2-propylphenoxy]butyrate] returned a melting point of 65 to 66 °C.
Same read-out and setting: under `CCCc1c(OCCCSc2ccc(C(C)=O)c(OCCCC(=O)OCC)c2CCC)ccc(C(C)=O)c1O` [Example 23, Ethyl 4-[6-acetyl-3-[3-(4-acetyl-3-hydroxy-2-propyl-phenoxy)propylthio]-2-propylphenoxy]butyrate] stands 87 to 88 °C.
On the same count and under the same terms, under `CCCc1c([S+]([O-])CCCOc2ccc(C(C)=O)c(OCCCC(=O)OCC)c2CCC)ccc(C(C)=O)c1O` (stereo not drawn) [Example 31, Ethyl 4-[6-acetyl-3-[3-(4-acetyl-3-hydroxy-2-propyl-phenylsulfinyl)propoxy]-2-propylphenoxy]butyrate] stands 74 to 76 °C; under `CCCc1c(S(=O)(=O)CCCOc2ccc(C(C)=O)c(OCCCC(=O)OCC)c2CCC)ccc(C(C)=O)c1O` [Example 32, Ethyl 4-[6-acetyl-3-[3-(4-acetyl-3-hydroxy-2-propyl-phenylsulfonyl)propoxy]-2-propylphenoxy]butyrate], 77 to 79 °C.
As for `CCCc1c(SCCCOc2ccc(C(C)=O)c(OCCCC(=O)O)c2CCC)ccc(C(C)=O)c1O` [Example 33, 4-[6-Acetyl-3-[3-(4-acetyl-3-hydroxy-2-propyl-phenylthio)propoxy]-2-propylphenoxy]butyric acid], the Inhibition in data set [1] (dose 3.125 mg/kg p.o.) is listed as 28.0; in data set [1] (dose 6.25 mg/kg p.o.), 40.2; in data set [1] (dose 12.5 mg/kg p.o.), 63.9; in data set [1] (dose 50 mg/kg p.o.), 94.8.
In the case of `CCCc1c(SCCCOc2ccc(C(C)=O)c(OCCCCCC(=O)O)c2CCC)ccc(C(C)=O)c1O` [Example 35], the Inhibition in data set [1] (dose 6.25 mg/kg p.o.) was determined as 10.7; in data set [1] (dose 12.5 mg/kg p.o.), 51.3; in data set [1] (dose 50 mg/kg p.o.) it was 92.4.
Regarding `CCCc1c(SCCCSc2ccc(C(C)=O)c(OCCCC(=O)O)c2CCC)ccc(C(C)=O)c1O` [Example 45], the Inhibition in data set [1] (dose 1.56 mg/kg p.o.) is on record as 22.4; in data set [1] (dose 3.125 mg/kg p.o.), 54.2; in data set [1] (dose 6.25 mg/kg p.o.), 71.3; in data set [1] (dose 12.5 mg/kg p.o.), 72.7; in data set [1] (dose 50 mg/kg p.o.) it was 96.2.
Consider `CCCc1c(SCCCSc2ccc(C(C)=O)c(OCCCCC(=O)O)c2CCC)ccc(C(C)=O)c1O` [Example 46], for which the Inhibition came out at 38.5 in data set [1] (dose 3.125 mg/kg p.o.), 46.6 in data set [1] (dose 6.25 mg/kg p.o.), 37.5 in data set [1] (dose 12.5 mg/kg p.o.) and 94.2 in data set [1] (dose 50 mg/kg p.o.).
In the case of `CCCc1c(SCCCSc2ccc(C(C)=O)c(OCCCCCC(=O)O)c2CCC)ccc(C(C)=O)c1O` [Example 47], the Inhibition in data set [1] (dose 3.125 mg/kg p.o.) was found to be 29.1; in data set [1] (dose 12.5 mg/kg p.o.), 72.5; in data set [1] (dose 50 mg/kg p.o.), 92.9.
Taken in the same sequence, the figures for `CCCc1c(SCCCSc2ccc(C(C)=O)c(OCCCCCCC(=O)O)c2CCC)ccc(C(C)=O)c1O` [Example 48] were 33.6, 79.7 and 90.7.
For `CCCc1c(SCCCSc2ccc(C(C)=O)c(OCCCCCCCCC(=O)O)c2CCC)ccc(C(C)=O)c1O` [Example 49], the Inhibition was 19.1 in data set [1] (dose 6.25 mg/kg p.o.), 58.9 in data set [1] (dose 12.5 mg/kg p.o.) and 77.7 in data set [1] (dose 50 mg/kg p.o.).
On to `CCCc1c(OCCCSc2ccc(C(C)=O)c(OCCCC(=O)O)c2CCC)ccc(C(C)=O)c1O` [Example 53], for which the Inhibition in data set [1] (dose 3.125 mg/kg p.o.) stood at 15.2; in data set [1] (dose 6.25 mg/kg p.o.), 50.4; in data set [1] (dose 12.5 mg/kg p.o.) it was 60.4; in data set [1] (dose 50 mg/kg p.o.) it was 66.7.
In the case of `CCCc1c(OCCCSc2ccc(C(C)=O)c(OCCCCCC(=O)O)c2CCC)ccc(C(C)=O)c1O` [Example 55], the Inhibition in data set [1] (dose 6.25 mg/kg p.o.) worked out at 36.4; in data set [1] (dose 12.5 mg/kg p.o.), 45.0; in data set [1] (dose 50 mg/kg p.o.) it was 88.0.
